Where two headings read alike, the source gives them in different places. Marks after values point to notes of the source that are not given here.
Columns and labels:
Axitinib exposure = type: in vivo; conditions: human, plasma, oral
[1] = In-clinic diastolic blood pressure in mRCC patients of the PK/PD analysis; type: in vivo, human; conditions: maximum post-baseline dBP within the first 8 weeks; 168 mRCC patients
mRCC patients [2] = assay: Efficacy in mRCC studies; type: in vivo, human
[3] = cited from earlier work
mRCC = conditions: second-line therapy for mRCC; cited from earlier work
mRCC patients [4] = conditions: cited from earlier work
clinical = conditions: human, in vivo
[5] = cited from earlier work; remark: listed apart in the source
[6] = corrected serum calcium <10 mg/dL
[7] = corrected serum calcium ≥10 mg/dL
[8] = corrected serum calcium ≥10 vs <10 mg/dL
[9] = hemoglobin >13 g/dL for male, >11.5 for female
[10] = hemoglobin ≤13 g/dL for male, ≤11.5 for female
[11] = per 10 mm Hg increase of dBP, adjusted for prognostic factors
[12] = per 100 hxng/mL increase of AUC, adjusted for prognostic factors
[13] = sorafenib- vs cytokine-refractory

With CNC(=O)c1ccccc1Sc1ccc2c(/C=C/c3ccccn3)n[nH]c2c1 [axitinib] the AUC (Axitinib exposure) was 375 ng·h/mL, the “dBP, median (range)” value [1] was 90 (58–116) ^e mm Hg and the mOS (mRCC patients [2]; AUC <300 hxng/mL) was 15.8 months. For the same compound, the mPFS (mRCC patients [2]; AUC <300 hxng/mL) was 7.4 months, the mOS (mRCC patients [2]; AUC ≥300 hxng/mL) was 37.4 months and the mPFS (mRCC patients [2]; AUC ≥300 hxng/mL) was 13.8 months. The “OS HR (95% CI), multivariate” value (mRCC patients [2]; ECOG PS) was 2.37 (1.50, 3.72), the “PFS HR (95% CI), multivariate” value (mRCC patients [2]; ECOG PS) was 1.82 (1.17, 2.83) and the mOS (mRCC patients [2]; ECOG PS 0) was 41.6 months. The mPFS (mRCC patients [2]; ECOG PS 0) was 13.7 months, the mOS (mRCC patients [2]; ECOG PS 1) was 10.7 months and the mPFS (mRCC patients [2]; ECOG PS 1) was 7.13 months. For the same compound, the “OS HR (95% CI), univariate” value (mRCC patients [2]; ECOG PS 1 vs 0) was 3.63 (2.40, 5.48), the “PFS HR (95% CI), univariate” value (mRCC patients [2]; ECOG PS 1 vs 0) was 2.17 (1.46, 3.23) and the “OS HR (95% CI), univariate” value (mRCC patients [2]; age, continuous) was 0.992 (0.972, 1.01). The “PFS HR (95% CI), univariate” value (mRCC patients [2]; age, continuous) was 1.006 (0.986, 1.026), the mOS (mRCC patients [2]; [6]) was 27.7 months and the mPFS (mRCC patients [2]; [6]) was 11.1 months. The mOS (mRCC patients [2]; [7]) was 16.4 months, the mPFS (mRCC patients [2]; [7]) was 8.38 months and the “OS HR (95% CI), univariate” value (mRCC patients [2]; [8]) was 1.74 (1.03, 2.96). For the same compound, the “PFS HR (95% CI), univariate” value (mRCC patients [2]; [8]) was 1.21 (0.688, 2.13), the mOS (mRCC patients [2]; cytokine-refractory) was 30.0 months and the mPFS (mRCC patients [2]; cytokine-refractory) was 13.0 months. For the same compound, the mOS (mRCC patients [2]; dBP <90 mm Hg) was 18.5 months, the mPFS (mRCC patients [2]; dBP <90 mm Hg) was 7.86 months and the mOS (mRCC patients [2]; dBP ≥90 mm Hg) was 29.5 months. It also gave a mPFS (mRCC patients [2]; dBP ≥90 mm Hg) of 14.6 months, a mOS (mRCC patients [2]; female) of 19.6 months and a mPFS (mRCC patients [2]; female) of 7.63 months. The “OS HR (95% CI), univariate” value (mRCC patients [2]; female vs male) was 1.26 (0.799, 1.97), the “PFS HR (95% CI), univariate” value (mRCC patients [2]; female vs male) was 1.63 (1.09, 2.46) and the “Increase in the probability of achieving a partial response” value (mRCC patients [2]; for every 100 hxng/mL increase in AUC, logistic regression) was 1.5 fold. The “PFS HR (95% CI), multivariate” value (mRCC patients [2]; gender) was 1.72 (1.14, 2.60), the “OS HR (95% CI), multivariate” value (mRCC patients [2]; hemoglobin) was 0.348 (0.213, 0.567) and the “PFS HR (95% CI), multivariate” value (mRCC patients [2]; hemoglobin) was 0.601 (0.393, 0.921). It also gave a mOS (mRCC patients [2]; [9]) of 43.3 months, a mPFS (mRCC patients [2]; [9]) of 14.6 months and a mOS (mRCC patients [2]; [10]) of 15.9 months. For the same compound, the mPFS (mRCC patients [2]; [10]) was 7.69 months, the “OS HR (95% CI), univariate” value (mRCC patients [2]; high vs low hemoglobin) was 0.282 (0.179, 0.443) and the “PFS HR (95% CI), univariate” value (mRCC patients [2]; high vs low hemoglobin) was 0.537 (0.364, 0.792). The mOS (mRCC patients [2]; male) was 27.7 months, the mPFS (mRCC patients [2]; male) was 13.0 months and the “OS HR (95% CI), multivariate” value (mRCC patients [2]; [11]) was 0.739 (0.586, 0.931). For the same compound, the “PFS HR (95% CI), multivariate” value (mRCC patients [2]; [11]) was 0.660 (0.519, 0.839), the “OS HR (95% CI), multivariate” value (mRCC patients [2]; [12]) was 0.866 (0.773, 0.968) and the “PFS HR (95% CI), multivariate” value (mRCC patients [2]; [12]) was 0.909 (0.832, 0.993). For the same compound, the “OS HR (95% CI), multivariate” value (mRCC patients [2]; prior therapy) was 2.12 (1.35, 3.34), the “PFS HR (95% CI), multivariate” value (mRCC patients [2]; prior therapy) was 1.60 (1.04, 2.47) and the “OS HR (95% CI), univariate” value (mRCC patients [2]; [13]) was 2.15 (1.39, 3.34). For the same compound, the “PFS HR (95% CI), univariate” value (mRCC patients [2]; [13]) was 1.55 (1.02, 2.34), the mOS (mRCC patients [2]; sorafenib-refractory) was 15.8 months and the mPFS (mRCC patients [2]; sorafenib-refractory) was 7.63 months. The “Effect of food on oral bioavailability” value (Form XLI) was “negligible effect”, the “Vp (volume of distribution in peripheral compartment)” value (final model) was 393 L and the “Age >60-yr effect on CL” value (human, in vivo) was −0.213. For the same compound, the “F with Form XLI” value (human, in vivo) was “g F with Form XLI is estimated to be 0.402; calculated as 0.457 × (1 – 0.121). Note that there was no observed food effect with Form XLI”, the “F, fasting with Form IV” value (human, in vivo) was “f For fasting effect with Form IV, F is estimated to be 0.608; calculated as 0.457 × (1 + 0.33)” and the “Fasting effect on ka” value (human, in vivo) was 1.97. The “Fasting on F, Form IV” value (human, in vivo) was 0.330, the “Japanese ethnicity effect on CL” value (human, in vivo) was −0.249 and the “Q (apparent inter-compartmental clearance)” value (human, in vivo) was 4.00 (86.8) ^d L/h. The “Smoking status on CL” value (human, in vivo) was 1.02, the “ka (first-order absorption rate constant): fed” value (human, in vivo) was 0.482 (77) hour^–1 and the “ka higher in the fasted state compared with the fed state” value (human, in vivo) was 197%. The “ka, fasting” value (human, in vivo) was “e For fasting effect, ka is estimated to be 1.43 hour^−1; calculated as 0.482 hour^−1 × (1 + 1.97)”, the “tlag (absorption lag time)” value (human, in vivo) was 0.454 h and the “Increase of oral bioavailability in the fasted state compared with the fed state” value (human, in vivo, po) was 33%. The “Exposure compared with normal hepatic function” value ([3]; mild hepatic impairment) was “did not alter axitinib exposures”, the “Higher exposure compared with normal hepatic function” value ([3]; moderate hepatic impairment) was 2 fold and the Efficacy versus sorafenib (mRCC) was “superior efficacy over sorafenib”. The “RECIST-based overall response rate” value (mRCC patients [4]; study 2, cytokine-refractory mRCC) was 44%, the “RECIST-based overall response rate” value (mRCC patients [4]; study 4, sorafenib-refractory mRCC) was 23% and the “RECIST-based overall response rate” value (mRCC patients [4]; study 5, Japanese cytokine-refractory mRCC) was 50%. For the same compound, the Vd (clinical) was 47.3 L, the clearance (clinical) was 243 mL/min and the “Time to peak plasma concentration” value ([5]; oral administration, fed state) was 2 to 6 h. For the same compound, the “Maximum tolerated dose (MTD)” value ([5]; study 1, patients with solid tumors) was 5 mg bid.
